Earlier results in patent publication US9913492B1, “Yolatile liquid inhaler and method of manufacture” (priority 2010, dated 2018).

Columns and labels:
[1] = at 25 degrees C.

Structure (SMILES)	lethal dose (adult human beings; comparison with nicotine) [mg]	lethal dosage (adult human beings; adult human beings) [mg]	LD50 (rats) [mg/kg]	LD50 (mice) [mg/kg]	vapor pressure [1] [MBR]
COC(=O)[C@H]1[C@@H](OC(=O)c2ccccc2)C[C@@H]2CC[C@H]1N2C [cocaine]	1000				
CN1CCCC1c1cccnc1 (centres unmarked) [nicotine]		40 to 60	50	3	0.53
